According to a melting point compilation (Tetko et al.; mined from patent text by program, amines drawn as free bases though some values may be those of a salt):

CCCC(=O)c1cnc2c(C)cccc2c1Nc1ccc(Cl)cc1Cl gave a melting point of 169 to 170 °C. Work on CNC(=O)c1cccc(Cl)c1Nc1nc(Nc2ccc3c(c2)CCCC(=O)N3C)ncc1Cl yielded a melting point of 145 to 160 °C. With C[C@H](N)c1ccc(O)cc1 the melting point was 120 °C. For CCN(CC)c1cncc(C(=O)Nc2nnn[nH]2)n1, the melting point was 217 to 218 °C. In the case of O[C@@H]1CCN(Cc2nc(-c3ccc4c(c3)Nc3ccccc3S4)cs2)C1, the melting point is reported as 178 to 180 °C. With CN[C@@H](C)[C@@H]1CCN(c2c(F)cc3c(=O)[nH]c(=O)n(C4CC4)c3c2C)C1 the melting point was > 250 °C. In the case of Cc1cc(NC(=O)CC(C)(C)C)c(C)c2c1OC(C)(C)C2c1ccc(C(C)C)cc1 (stereo not drawn), the melting point is reported as 118 to 119 °C. O=C(O)c1cc(F)cc(-c2cccc3cc(Cc4cccc(C(F)(F)F)c4)sc23)c1 showed a melting point of 140 to 142 °C. For CC(=O)c1c2c(c(C)[nH]c1=O)CC(c1ccccn1)CC2 (stereo not drawn), the melting point was 254 to 256 °C. With O=C(O)CC1SCCOC1=O (stereo not drawn) the melting point was 96 to 98 °C. With CCCCCCCCCCCCc1ccc(C(=O)c2ccccc2C(=O)O)cc1 the melting point was 85 °C. Work on Nc1ncccc1NCc1ccc(OCc2cccc(F)c2)cc1 yielded a melting point of 91 to 93 °C. For Fc1ccc(-c2ncn(CCCN3CCOCC3)c2-c2ccncc2)cc1, the melting point was 149 to 150 °C. For CC(O)(c1ccc(Cl)cc1)c1cc2ccccc2o1 (stereo not drawn), the melting point was 64 to 66 °C. Work on CCOC1=CC(C)=C(C(=O)OC)C(C)(C)C1 yielded a melting point of 67 to 69 °C. In the case of N#Cc1c(Cl)[nH]c2cccnc12, the melting point is reported as > 250 °C. Work on Cc1c(F)c(F)c(C(N)=O)c(F)c1F yielded a melting point of 157 to 158 °C. With COC(=O)[C@H](C)OC(=O)c1cc(-n2c(=O)cc(C(F)(F)F)n(C)c2=O)ccc1Cl the melting point was 59 to 60 °C. For O=C(O)CCOCc1ccccc1, the melting point was 35.2 °C. CCCCn1nc(C)c(C=O)c1Cc1ccc(-c2ccccc2-c2nnn[nH]2)cc1 gave a melting point of 64 to 70 °C. For CCOC(=O)C(C)(C(C)=O)c1ccc(N)c(NC)c1C#N (stereo not drawn), the melting point was 118 to 123 °C. Compound CC(=O)C(CSC(=S)N(C)C)=C(C)O has a melting point of 70 to 72 °C. Work on CCCNC(=O)C(C)=Cc1ccc2ccn(Cc3ccc(C(=O)NS(=O)(=O)c4ccccc4C)cc3OC)c2c1 yielded a melting point of 224 to 227 °C. Work on CCCCCCCCC#CCC#CCC#CCSCC(=O)NCCO yielded a melting point of 77 °C. Work on Cc1c(C)c2c(c(C3CC(=O)C=C(O)C3)c1C)OCC2 (stereo not drawn) yielded a melting point of 264 °C. CC(C)Cn1nc(OCCCc2ccc(OC(C)C)cc2OCc2ccc(Cl)cc2Cl)cc1CCC(=O)O showed a melting point of 133 to 134 °C. With Clc1ccc2c(c1)c(-c1ccccc1)nn1cnnc21 the melting point was 189 to 190 °C. For COCc1c[nH]c2c([N+](=O)[O-])cc(C)cc2c1=O, the melting point was > 240 °C. Compound FC(F)(F)c1ccc(COc2ncncc2Oc2ccccc2)cc1 has a melting point of 56 to 57 °C. Compound Nc1nsc2nc3ccccc3n12 has a melting point of 255 to 256 °C. Work on O=C(O)CCNC(=O)NCC(CS)c1ccccc1 (stereo not drawn) yielded a melting point of 88 to 90 °C. In the case of FC(F)(F)c1cccc(Nc2nc(NCc3ccco3)nc(OCc3ccncc3)n2)c1, the melting point is reported as 124 to 126 °C. With CCCc1nc(C(C)(O)CC)c(C#N)n1C(c1ccccc1)(c1ccccc1)c1ccccc1 (stereo not drawn) the melting point was > 120 °C. In the case of COc1cc2c(cc1C#N)C1(CO2)C(=O)Nc2ccccc21 (stereo not drawn), the melting point is reported as 185 to 186 °C. With CCCOCN(C(=O)CCl)c1c(OC)cccc1OC the melting point was 83 to 85 °C. For COC(=O)C1C=C2c3cccc4[nH]c(Br)c(c34)CC2N(C)C1 (stereo not drawn), the melting point was 124 to 125 °C. Cc1ccc(C2c3c(C)c(NC(=O)c4ccc5c(c4)OCO5)c(C)c(C)c3OC2(C)C)cc1 (stereo not drawn) showed a melting point of 164 to 165 °C. With CC(C)(C)OC(=O)N[C@@H](Cc1ccccc1)[C@@H](O)[C@@H](O)C1CC1 the melting point was 83 to 85 °C. Work on CCOC(=O)C(=CNC(C)(C)C)C(=O)c1cc(F)c(Cl)nc1Cl yielded a melting point of 78 °C. CN1CCN(c2c(F)c(F)c3c(=O)c(C(=O)O)cn(C4CC4)c3c2F)CC1 showed a melting point of 245 °C. Cc1cccc2c(=O)n(C3CCC(=O)NC3=O)c(C)nc12 (stereo not drawn) showed a melting point of 296 to 298 °C. With Cc1cc(NCc2ccccc2)c2cc(NC(=O)C=Cc3ccccc3Cl)ccc2n1 the melting point was 253 to 254 °C. Compound C=CCNc1cc(C(=O)OCC)nc2cn[nH]c12 has a melting point of 140 to 145 °C. COc1cc(O)c(C=O)c(-c2nc(C)no2)c1C gave a melting point of 135 to 136 °C. O=C(O)Cc1cc2c(c(-c3ccccc3)c1)NC(C(F)(F)F)CC2 (stereo not drawn) gave a melting point of 131 to 132 °C. Compound COc1ccc(-c2nc3c(C(=O)NC4CN5CCC4CC5)cccc3o2)cc1 (stereo not drawn) has a melting point of 108 to 109 °C. Work on Cc1ccccc1-c1c(C(=O)O)c(=O)n(C)c2ccc(Cl)cc12 yielded a melting point of 202 to 203 °C. Cc1cc2nnc(C)n2nc1-c1ccc(C#N)cc1 gave a melting point of 242 to 244 °C. With CC(OS(C)(=O)=O)C(=O)O (single isomer, unassigned; (-)) the melting point was 65 to 72 °C. For O=S(=O)(/C=C/c1ccccc1)Nc1ccc(Cl)cc1, the melting point was 107 to 109 °C. For Cc1c(F)cc(C(=O)O)c(Cl)c1N, the melting point was 182 to 184 °C. Cc1nc(-c2ccc(C(=O)c3ccccc3)cc2)sc1C(=O)O showed a melting point of 217 to 218 °C. Work on CCN(CC)CCOc1cccc2c1c1cccc(F)c1n2Cc1ccccc1 yielded a melting point of 60 to 60.5 °C.
